Source: ChEMBL document CHEMBL1133229, “Parallel synthesis and evaluation of N-(1-phenylethyl)-5-phenyl-imidazole-2-amines as Na+/K+ ATPase inhibitors” (Bioorg Med Chem Lett, 2000)

Assays:
[1] = molecular target: Sodium/potassium-transporting ATPase; assay: Inhibition of myocardial Na+/K+ ATPase from canine cardiac sarcolemma; assay type: protein-complex assay, Canis lupus familiaris
Cavia porcellus = species on record: Cavia porcellus; assay: Compound was evaluated for inotropic activity in guinea pig papillary muscle; assay type: functional; conditions: Muscle tissue

Structure (SMILES)	IC50 [1] [µM]	EC50 (Cavia porcellus) [µM]
C[C@@H](Nc1ncc(-c2ccccc2)n1C)c1ccccc1	10	
COc1cc2c(cc1OC)-c1cnc(NCc3ccccc3)n1CC2		1
C[C@H](Nc1ncc(-c2ccccc2)n1C)c1ccccc1	61	
CCC(C)C(Nc1ncc(-c2ccccc2)n1C)c1ccccc1 (centres undefined)	77	
CC(Nc1ncc(-c2ccccc2)n1C)c1ccc(Cl)cc1 (centres undefined)	1.3	
CC(Nc1ncc(-c2ccc3ccccc3c2)n1C)c1ccccc1 (centres undefined)	2.1	
CC(Nc1ncc(-c2ccccc2)n1C)c1ccccc1 (centres undefined)	38	
CC(Nc1ncc(-c2cc(F)cc(F)c2)n1C)c1ccccc1 (centres undefined)	52	
CC(Nc1ncc(-c2ccc(OC(F)(F)F)cc2)n1C)c1ccccc1 (centres undefined)	33	

Further compounds by falling IC50 [1], results first:

IC50 [1] [µM]	EC50 (Cavia porcellus) [µM]	Structure (SMILES)
99		COc1ccc(-c2cnc(NC(C)c3ccccc3)n2C)cc1OC (centres undefined)
88		CC(Nc1ncc(-c2cc(C(F)(F)F)cc(C(F)(F)F)c2)n1C)c1ccccc1 (centres undefined)
14		CC(Nc1ncc(-c2cccc(-c3ccccc3)c2)n1C)c1ccccc1 (centres undefined)
10		CC(Nc1ncc(-c2ccccc2)n1C)c1ccc(F)cc1 (centres undefined)
0.8		CCC(Nc1ncc(-c2ccccc2)n1C)c1ccc(Cl)cc1 (centres undefined)
